PubChem BioAssay (NCI)
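GI50: concentration for 50% inhibition of growth. Definition used: TGI = concentration required for complete inhibition of growth.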

Tests used:
Test in all cases: NCI anticancer screen, dose series, 384-well format
786-0 renal = test system: 786-0 renal
A498 renal = test system: A498 renal
A549 NSCLC = test system: A549 NSCLC
ACHN renal = test system: ACHN renal
BT-549 breast = test system: BT-549 breast
CAKI-1 renal = test system: CAKI-1 renal
CCRF-CEM leukemia = test system: CCRF-CEM leukemia
COLO 205 colon = test system: COLO 205 colon
DU-145 prostate = test system: DU-145 prostate
EKVX NSCLC = test system: EKVX NSCLC
HCC-2998 colon = test system: HCC-2998 colon
HCT-116 colon = test system: HCT-116 colon
HCT-15 colon = test system: HCT-15 colon
HL-60(TB) leukemia = test system: HL-60(TB) leukemia
HOP-62 NSCLC = test system: HOP-62 NSCLC
HOP-92 NSCLC = test system: HOP-92 NSCLC
HS 578T breast = test system: HS 578T breast
HT29 colon = test system: HT29 colon
IGROV1 ovarian = test system: IGROV1 ovarian
KM12 colon = test system: KM12 colon
LOX IMVI melanoma = test system: LOX IMVI melanoma
M14 melanoma = test system: M14 melanoma
MALME-3M melanoma = test system: MALME-3M melanoma
MCF7 breast = test system: MCF7 breast
MDA-MB-231 breast = test system: MDA-MB-231 breast
MDA-MB-435 melanoma = test system: MDA-MB-435 melanoma
MDA-MB-468 breast = test system: MDA-MB-468 breast
MOLT-4 leukemia = test system: MOLT-4 leukemia
NCI-H226 lung = test system: NCI-H226 lung
NCI-H23 lung = test system: NCI-H23 lung
NCI-H322M lung = test system: NCI-H322M lung
NCI-H460 NSCLC = test system: NCI-H460 NSCLC
NCI-H522 lung = test system: NCI-H522 lung
NCI/ADR-RES ovarian = test system: NCI/ADR-RES ovarian
OVCAR-3 ovarian = test system: OVCAR-3 ovarian
OVCAR-4 ovarian = test system: OVCAR-4 ovarian
OVCAR-5 ovarian = test system: OVCAR-5 ovarian
OVCAR-8 ovarian = test system: OVCAR-8 ovarian
PC-3 prostate = test system: PC-3 prostate
RPMI-8226 leukemia = test system: RPMI-8226 leukemia
RXF 393 renal = test system: RXF 393 renal
SF-268 CNS = test system: SF-268 CNS
SF-295 CNS = test system: SF-295 CNS
SF-539 CNS = test system: SF-539 CNS
SK-MEL-28 melanoma = test system: SK-MEL-28 melanoma
SK-MEL-5 melanoma = test system: SK-MEL-5 melanoma
SK-OV-3 ovarian = test system: SK-OV-3 ovarian
SN12C renal = test system: SN12C renal
SNB-19 CNS = test system: SNB-19 CNS
SNB-75 CNS = test system: SNB-75 CNS
SR leukemia = test system: SR leukemia
SW-620 colon = test system: SW-620 colon
T-47D breast = test system: T-47D breast
TK-10 renal = test system: TK-10 renal
U251 glioblastoma = test system: U251 glioblastoma
UACC-257 melanoma = test system: UACC-257 melanoma
UACC-62 melanoma = test system: UACC-62 melanoma
UO-31 renal = test system: UO-31 renal

CC#CC(=O)N1CCC[C@H]1c1nc(-c2ccc(C(=O)Nc3ccccn3)cc2)c2c(N)nccn12
GI50 (786-0 renal): > 74.8 µM | TGI (786-0 renal): > 100 µM | GI50 (A498 renal): 59.6 µM | TGI (A498 renal): > 100 µM | GI50 (A549 NSCLC): 51.9 µM | TGI (A549 NSCLC): > 100 µM | GI50 (ACHN renal): > 73.2 µM | TGI (ACHN renal): > 100 µM | GI50 (BT-549 breast): 27.9 µM | TGI (BT-549 breast): > 91.9 µM | GI50 (CAKI-1 renal): 57.7 µM | TGI (CAKI-1 renal): > 100 µM | GI50 (CCRF-CEM leukemia): 85.3 µM | TGI (CCRF-CEM leukemia): > 100 µM | GI50 (COLO 205 colon): > 100 µM | TGI (COLO 205 colon): > 100 µM | GI50 (DU-145 prostate): 82 µM | TGI (DU-145 prostate): > 100 µM | GI50 (EKVX NSCLC): 73.1 µM | TGI (EKVX NSCLC): > 100 µM | GI50 (HCC-2998 colon): > 100 µM | TGI (HCC-2998 colon): > 100 µM | GI50 (HCT-116 colon): 47.9 µM | TGI (HCT-116 colon): > 100 µM | GI50 (HCT-15 colon): > 76.2 µM | TGI (HCT-15 colon): > 100 µM | GI50 (HL-60(TB) leukemia): > 100 µM | TGI (HL-60(TB) leukemia): > 100 µM | GI50 (HOP-62 NSCLC): 42 µM | TGI (HOP-62 NSCLC): > 100 µM | GI50 (HOP-92 NSCLC): 68.8 µM | TGI (HOP-92 NSCLC): > 100 µM | GI50 (HS 578T breast): 44.9 µM | TGI (HS 578T breast): > 100 µM | GI50 (HT29 colon): 84.8 µM | TGI (HT29 colon): > 100 µM | GI50 (IGROV1 ovarian): 20 µM | TGI (IGROV1 ovarian): 64.3 µM | GI50 (KM12 colon): > 100 µM | TGI (KM12 colon): > 100 µM | GI50 (LOX IMVI melanoma): > 89.2 µM | TGI (LOX IMVI melanoma): > 100 µM | GI50 (M14 melanoma): 74.8 µM | TGI (M14 melanoma): > 100 µM | GI50 (MALME-3M melanoma): > 58.9 µM | TGI (MALME-3M melanoma): > 100 µM | GI50 (MCF7 breast): 50.9 µM | TGI (MCF7 breast): > 100 µM | GI50 (MDA-MB-231 breast): 38.3 µM | TGI (MDA-MB-231 breast): > 100 µM | GI50 (MDA-MB-435 melanoma): > 100 µM | TGI (MDA-MB-435 melanoma): > 100 µM | GI50 (MDA-MB-468 breast): 15.5 µM | TGI (MDA-MB-468 breast): 40.7 µM | GI50 (MOLT-4 leukemia): 18.8 µM | TGI (MOLT-4 leukemia): 36.1 µM | GI50 (NCI-H226 lung): 41.6 µM | TGI (NCI-H226 lung): 98.4 µM | GI50 (NCI-H23 lung): > 100 µM | TGI (NCI-H23 lung): > 100 µM | GI50 (NCI-H322M lung): 31.6 µM | TGI (NCI-H322M lung): > 88.3 µM | GI50 (NCI-H460 NSCLC): 71.8 µM | TGI (NCI-H460 NSCLC): > 100 µM | GI50 (NCI-H522 lung): 5.87 µM | TGI (NCI-H522 lung): > 80.8 µM | GI50 (NCI/ADR-RES ovarian): > 100 µM | TGI (NCI/ADR-RES ovarian): > 100 µM | GI50 (OVCAR-3 ovarian): 44.8 µM | TGI (OVCAR-3 ovarian): > 100 µM | GI50 (OVCAR-4 ovarian): > 100 µM | TGI (OVCAR-4 ovarian): > 100 µM | GI50 (OVCAR-5 ovarian): > 100 µM | TGI (OVCAR-5 ovarian): > 100 µM | GI50 (OVCAR-8 ovarian): > 90 µM | TGI (OVCAR-8 ovarian): > 100 µM | GI50 (PC-3 prostate): > 100 µM | TGI (PC-3 prostate): > 100 µM | GI50 (RPMI-8226 leukemia): 48.5 µM | TGI (RPMI-8226 leukemia): > 100 µM | GI50 (RXF 393 renal): 14.2 µM | TGI (RXF 393 renal): > 60.9 µM | GI50 (SF-268 CNS): > 86.4 µM | TGI (SF-268 CNS): > 100 µM | GI50 (SF-295 CNS): > 100 µM | TGI (SF-295 CNS): > 100 µM | GI50 (SF-539 CNS): > 100 µM | TGI (SF-539 CNS): > 100 µM | GI50 (SK-MEL-28 melanoma): > 100 µM | TGI (SK-MEL-28 melanoma): > 100 µM | GI50 (SK-MEL-5 melanoma): 60.5 µM | TGI (SK-MEL-5 melanoma): > 100 µM | GI50 (SK-OV-3 ovarian): 71.4 µM | TGI (SK-OV-3 ovarian): > 100 µM | GI50 (SN12C renal): 98 µM | TGI (SN12C renal): > 100 µM | GI50 (SNB-19 CNS): > 100 µM | TGI (SNB-19 CNS): > 100 µM | GI50 (SNB-75 CNS): 29.7 µM | TGI (SNB-75 CNS): > 83 µM | GI50 (SR leukemia): 15.2 µM | TGI (SR leukemia): 42.1 µM | GI50 (SW-620 colon): > 100 µM | TGI (SW-620 colon): > 100 µM | GI50 (T-47D breast): 40.1 µM | TGI (T-47D breast): > 100 µM | GI50 (TK-10 renal): 57.2 µM | TGI (TK-10 renal): > 100 µM | GI50 (U251 glioblastoma): > 100 µM | TGI (U251 glioblastoma): > 100 µM | GI50 (UACC-257 melanoma): 67.7 µM | TGI (UACC-257 melanoma): > 100 µM | GI50 (UACC-62 melanoma): 39.9 µM | TGI (UACC-62 melanoma): > 100 µM | GI50 (UO-31 renal): > 95.6 µM | TGI (UO-31 renal): > 100 µM
